In brackets after ≈: the same amount, converted by molar mass.
What was measured:
[1] = system: MDA-MB-231; experiment: Induction of apoptosis in human MDA-MB-231 cells assessed as increase in p53 level; format: functional
[2] = system: PC-3; experiment: Antiproliferative activity against human PC-3 cells assessed as inhibition of cell growth; format: functional, cell-based
[3] = system: HCT-116; experiment: Induction of apoptosis in human HCT-116 cells assessed as increase in p53 level; format: functional
[4] = system: MDA-MB-231; experiment: Antiproliferative activity against human MDA-MB-231 cells assessed as inhibition of cell growth; format: functional, cell-based
[5] = system: HCT-116; experiment: Antiproliferative activity against human HCT-116 cells assessed as inhibition of cell growth; format: functional, cell-based
[6] = system: A549; experiment: Antiproliferative activity against human A549 cells assessed as inhibition of cell growth; format: functional, cell-based
[7] = system: PC-3; experiment: Induction of apoptosis in human PC-3 cells assessed as increase in p53 level; format: functional
[8] = system: A549; experiment: Induction of apoptosis in human A549 cells assessed as increase in p53 level; format: functional
[9] = molecular target: T1, Tumour suppressor p53/oncoprotein Mdm2 (Homo sapiens, UniProt P04637+Q00987); experiment: Inhibition of MDM2/p53 interaction (unknown origin); format: protein assay
T1 sequence (P04637 whole entry): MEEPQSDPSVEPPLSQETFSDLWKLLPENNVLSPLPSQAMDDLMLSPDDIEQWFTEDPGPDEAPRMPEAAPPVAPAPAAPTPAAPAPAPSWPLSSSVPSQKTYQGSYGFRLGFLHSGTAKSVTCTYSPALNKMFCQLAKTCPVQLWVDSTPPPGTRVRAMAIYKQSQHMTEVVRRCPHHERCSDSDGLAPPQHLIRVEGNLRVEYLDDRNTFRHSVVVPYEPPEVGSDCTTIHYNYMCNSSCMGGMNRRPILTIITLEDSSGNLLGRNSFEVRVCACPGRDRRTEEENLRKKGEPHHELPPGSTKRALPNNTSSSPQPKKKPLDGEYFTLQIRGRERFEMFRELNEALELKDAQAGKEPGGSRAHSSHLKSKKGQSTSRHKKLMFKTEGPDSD
T1 sequence (Q00987 whole entry): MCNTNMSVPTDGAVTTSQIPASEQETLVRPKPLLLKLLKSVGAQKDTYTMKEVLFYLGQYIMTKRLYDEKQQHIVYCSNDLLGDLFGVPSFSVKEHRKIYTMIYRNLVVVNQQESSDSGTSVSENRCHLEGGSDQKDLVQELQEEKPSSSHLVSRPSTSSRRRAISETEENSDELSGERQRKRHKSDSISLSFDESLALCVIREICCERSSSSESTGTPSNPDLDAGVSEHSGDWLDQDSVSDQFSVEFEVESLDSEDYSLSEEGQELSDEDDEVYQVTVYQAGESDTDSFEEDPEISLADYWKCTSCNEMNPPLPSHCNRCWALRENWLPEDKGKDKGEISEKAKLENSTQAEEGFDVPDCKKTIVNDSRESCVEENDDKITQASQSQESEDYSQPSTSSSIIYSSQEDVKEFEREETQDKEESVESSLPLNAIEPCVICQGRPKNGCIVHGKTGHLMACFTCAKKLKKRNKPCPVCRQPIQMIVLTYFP

[10] = system: K562; experiment: Antiproliferative activity against human K562 cells assessed as inhibition of cell growth; format: functional, cell-based
[11] = system: HL-60; experiment: Antiproliferative activity against human HL-60 cells assessed as inhibition of cell growth; format: functional, cell-based
[12] = system: U-87 MG; experiment: Antiproliferative activity against human U87 cells assessed as inhibition of cell growth; format: functional, cell-based, U-87MG ATCC
[13] = system: HeLa; experiment: Antiproliferative activity against human HeLa cells assessed as inhibition of cell growth by MTT assay; format: functional, cell-based
[14] = system: PC-3; experiment: Antiproliferative activity against human PC-3 cells assessed as inhibition of cell growth by MTT assay; format: functional, cell-based
[15] = system: MCF7; experiment: Antiproliferative activity against human MCF7 cells assessed as inhibition of cell growth; format: functional, cell-based
[16] = system: JEG-3; experiment: Antiproliferative activity against human JEG-3 cells assessed as inhibition of cell growth; format: functional, cell-based
[17] = system: MCF7; experiment: Antiproliferative activity against human MCF7 cells assessed as inhibition of cell growth by MTT assay; format: functional, cell-based
[18] = system: HCT-116; experiment: Antiproliferative activity against human HCT-116 cells assessed as inhibition of cell growth by MTT assay; format: functional, cell-based
[19] = system: LNCaP; experiment: Antiproliferative activity against human LNCaP cells expressing p53 assessed as inhibition of cell growth by MTT assay; format: functional, cell-based
[20] = molecular target: E3 ubiquitin-protein ligase Mdm2 (Homo sapiens) (UniProt Q00987); experiment: Binding affinity to MDM2 (unknown origin) assessed as change in Gibbs free energy
Chain of E3 ubiquitin-protein ligase Mdm2 (Homo sapiens) (Q00987 whole entry, looked up): as the sequence (Q00987 whole entry) above

[21] = system: HT-29; experiment: Antiproliferative activity against human HT-29 cells assessed as inhibition of cell growth by MTT assay; format: functional, cell-based
[22] = system: PANC-1; experiment: Antiproliferative activity against human PANC-1 cells assessed as inhibition of cell growth by MTT assay; format: functional, cell-based
[23] = system: A549; experiment: Antiproliferative activity against human A549 cells assessed as inhibition of cell growth by MTT assay; format: functional, cell-based
[24] = molecular target: Tumour suppressor protein p53/Mdm4 (Homo sapiens, UniProt O15151+P04637); experiment: Binding affinity to MDM4/p53 interaction (unknown origin) assessed as inhibition constant; format: protein assay
Chain of Tumour suppressor protein p53/Mdm4 (P04637 whole entry): as the sequence (P04637 whole entry) above
Chain of Tumour suppressor protein p53/Mdm4 (O15151 whole entry): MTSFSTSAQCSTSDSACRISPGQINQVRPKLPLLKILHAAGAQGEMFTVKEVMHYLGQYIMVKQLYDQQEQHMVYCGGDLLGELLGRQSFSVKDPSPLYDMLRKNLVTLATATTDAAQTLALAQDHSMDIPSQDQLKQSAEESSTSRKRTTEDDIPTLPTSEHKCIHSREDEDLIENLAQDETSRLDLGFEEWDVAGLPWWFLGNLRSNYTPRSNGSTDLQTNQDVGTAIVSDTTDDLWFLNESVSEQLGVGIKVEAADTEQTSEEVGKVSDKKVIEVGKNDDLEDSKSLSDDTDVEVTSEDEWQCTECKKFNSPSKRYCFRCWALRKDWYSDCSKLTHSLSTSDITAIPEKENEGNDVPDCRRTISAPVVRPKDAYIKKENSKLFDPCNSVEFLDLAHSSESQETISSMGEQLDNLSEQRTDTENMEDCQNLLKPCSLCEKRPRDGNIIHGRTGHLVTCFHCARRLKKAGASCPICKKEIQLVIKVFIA

[25] = molecular target: T1, Tumour suppressor p53/oncoprotein Mdm2; experiment: Binding affinity to MDM2/p53 interaction (unknown origin) assessed as inhibition constant; format: protein assay
[26] = system: SH-SY5Y; experiment: Antiproliferative activity against human SH-SY5Y cells assessed as inhibition of cell growth by CCK-8 assay; format: functional, cell-based
[27] = system: U-87 MG; experiment: Antiproliferative activity against human U-87 MG cells assessed as inhibition of cell growth by CCK-8 assay; format: functional, cell-based, U-87MG ATCC
[28] = molecular target: E3 ubiquitin-protein ligase Mdm2 (Homo sapiens) (UniProt Q00987); experiment: Binding affinity to MDM2 (unknown origin) at 10 uM relative to control
[29] = system: HCT-116; experiment: Antiproliferative activity against human HCT-116 cells assessed as inhibition of cell growth by CCK-8 assay; format: functional, cell-based

For `O=C(c1nc2ccccc2[nH]1)[C@H]1[C@H](c2ccccc2)C2CC3CCCCC3N2[C@]12C(=O)Nc1ccc(Cl)cc12` (stereo partly drawn), the Activity [1] was 51.51%, the IC50 [2] was 3.4 µM and the Activity [3] was 49.83%. For the same compound, the IC50 [4] was 2.4 µM, the IC50 [5] was 7.24 µM and the IC50 [6] was 7.81 µM. It also gave an Activity [7] of 57.53% and an Activity [8] of 34.31%.

For `COc1cc(OC)c(C(=O)/C=C/c2ccc(Br)cc2)c(OCC=C(C)C)c1`, the IC50 [9] was 2.1 µM.

`COc1ccc(/C=C2\CCC[C@@]3(C2=O)[C@@H]2CCCN2[C@@]2(C(=O)Nc4ccccc42)[C@H]3c2ccc(OC)cc2)cc1` gave an IC50 [10] of 13.4 µM.

`O=C(Nc1cccc(Cl)c1)Sc1nnc(-c2ccc(Cl)cc2)n1-c1ccccc1` showed an IC50 [11] of 17.5 µM, an IC50 [6] of 3.85 µM and an IC50 [12] of 4.15 µM.

For `C[C@@H]1[C@@H]2CCCC[C@@H]2N2[C@H]1[C@@H](c1ccc(F)cc1)[C@@]1(CCC/C(=C\c3ccc(F)cc3)C1=O)[C@@]21C(=O)Nc2cc(Cl)ccc21`, the IC50 [13] was 7.2 µM.

`C[C@@H]1[C@@H]2CCCC[C@@H]2N2[C@H]1[C@@H](c1ccccc1)[C@@]1(CCC/C(=C\c3ccccc3)C1=O)[C@@]21C(=O)Nc2cc(Cl)ccc21` showed an IC50 [14] of 3.7 µM.

In the case of `C[C@@H]1CN(C)[C@]2(C(=O)N(CN3CCSCC3)c3ccccc32)[C@@]12CCC/C(=C\c1ccccc1)C2=O`, the IC50 [15] is reported as 31 µg/mL, the IC50 [16] is reported as 31 µg/mL (≈ 61.8 µM) and the IC50 [4] is reported as 31 µg/mL.

Compound `C[C@@H]1CN(C)[C@]2(C(=O)N(CN3CCCC3)c3ccccc32)[C@@]12CCC/C(=C\c1ccccc1)C2=O` has an IC50 [15] of 31 µg/mL, an IC50 [16] of 31 µg/mL (≈ 66 µM) and an IC50 [4] of 31 µg/mL.

`O=C1/C(=C/c2ccc(Br)cc2)CCC[C@]12[C@@H]1CCCN1[C@@]1(C(=O)Nc3ccccc31)[C@H]2c1ccc(Br)cc1` gave an IC50 [15] of 15.5 µM.

Compound `O=c1[nH]cc(F)c(=O)[nH]1` [FLUOROURACIL] has an IC50 [15] of 78.3 µM.

`Cc1cc(S(=O)(=O)/N=C2/NCCN2Cc2cc(C(F)(F)F)cc(C(F)(F)F)c2)c(SCc2nc(N)nc(N3CCN(c4ccccc4)CC3)n2)cc1Cl` showed an IC50 [13] of 3.6 µM, an IC50 [17] of 3.6 µM and an IC50 [18] of 3.6 µM.

For `Cc1cc(S(=O)(=O)/N=C2/NCCN2Cc2ccc(C(F)(F)F)cc2)c(SCc2nc(N)nc(N3CCN(c4cccc(F)c4)CC3)n2)cc1Cl`, the IC50 [13] was 4.6 µM, the IC50 [17] was 4.6 µM and the IC50 [18] was 4.6 µM.

With `COc1ccc([C@@H]2CN(C)[C@@]3(C(=O)Nc4ccccc43)[C@]23N=C(c2ccc(C)cc2)OC3=O)cc1` the IC50 [19] was 1.08 µM and the IC50 [14] was 3.21 µM.

For `COc1ccc(-c2nc3sc(-c4ccc(Br)cc4Br)cn3n2)cc1`, the deltaG [20] was -7.55 kcal/mol, the IC50 [21] was 1.3 µM and the IC50 [22] was 1.6 µM. The IC50 [17] was 1.2 µM and the IC50 [23] was 1.4 µM.

`O=C1/C(=C/c2cccc(Cl)c2)c2ccccc2N1S(=O)(=O)c1cccc(Cl)c1` was tested, and the IC50 [15] was 6.17 µM, the Ki [24] was 0.031 µM and the IC50 [5] was 11.2 µM. It also gave a Ki [25] of 7.24 µM and an IC50 [6] of 12.5 µM.

With `Cc1cc(S(=O)(=O)/N=C2/NCCN2Cc2ccc(C(F)(F)F)cc2)c(SCc2nc(N)nc(N3CCN(c4cccc(C(F)(F)F)c4)CC3)n2)cc1Cl` the IC50 [13] was 5 µM, the IC50 [17] was 5 µM and the IC50 [18] was 5 µM.

Work on `O=C1NC(O)(c2ccc(Cl)cc2)C(c2ccc(Cl)cc2)=C1c1ccc(Cl)cc1` (stereo not drawn) yielded an IC50 [26] of 1.48 µM, an IC50 [27] of 0.93 µM and an Activity [28] of 97%. The IC50 [29] was 0.59 µM.

Compound `C[C@@H]1[C@@H]2CCCC[C@@H]2N2[C@H]1[C@@H](c1ccccc1)[C@@]1(CCC/C(=C\c3ccccc3)C1=O)[C@@]21C(=O)Nc2ccccc21` has an IC50 [13] of 7.1 µM.

`CN1[C@H](c2ccc(Cl)cc2)[C@@]2(C[C@]13C(=O)Nc1ccc(Br)cc13)NC(=O)N(c1ccc(F)c(Cl)c1)C2=O` gave an IC50 [17] of 1.3 µM.

With `Cc1cc(S(=O)(=O)/N=C2/NCCN2Cc2cc(C(F)(F)F)cc(C(F)(F)F)c2)c(SCc2nc(N)nc(N3CCN(Cc4ccccc4)CC3)n2)cc1Cl` the IC50 [13] was 4.8 µM, the IC50 [17] was 4.8 µM and the IC50 [18] was 4.8 µM.

Reference: ChEMBL document CHEMBL5331082, “p53 as a potential target for treatment of cancer: A perspective on recent advancements in small molecules with structural insights and SAR studies” (Eur J Med Chem, 2023)
